The results in this text go back to patent US11642320B2, “Nanoparticulate prodrugs” (priority 2016, dated 2023).

Data set [1] relates to IL-6. As to the kind of experiment: Cytokine release from LPS-treated macrophages: IL-6. Type of data set: cell-based, mouse. The conditions noted are these: RAW 264.7, LPS 0.1 μg/mL, 24 hours. How it is done:
(§1) For the cytokine release experiment, the RAW 264.7 cells were seeded in 24-well plates at a cellular density of 4×10^4 cells/well in culture medium and they were left in the incubator for 48 hours to reach 80% confluency. Then, the medium was replaced by fresh medium alone or fresh medium with LPS at 0.1 μg/mL, and the plates were incubated another 3 hours. Afterwards, the “standard” nanoparticles produced by emulsification-solvent evaporation at three concentrations: 1, 10 and 100 μg/mL of DXP and free dexamethasone phosphate at 82 μg/ml, which correspond to 100 μg/ml DXP considering molecular weight ratio, were added to some wells. Culture medium alone was used as negative control and LPS 0.1 μg/mL as positive control.
(§2) After 24 hours of incubation with the treatments, the supernatants were collected and frozen at −20° C. until the analysis was performed. The cells were detached and counted.
(§3) The mouse inflammatory cytokines TNFα, MCP-1, IL-10 and IL-6 were quantified using a Cytometric Beads Array (CBA) detection kit (BD Biosciences, USA). This study was performed in triplicate.

Data set [2] deals with TNFα. In words: Cytokine release from LPS-treated macrophages: TNFα. Type of data set: cell-based, mouse. Particulars: RAW 264.7, LPS 0.1 μg/mL, 24 hours; 100 μg/ml DXP or same equivalent concentration (82 μg/ml dexamethasone phosphate). How it is done: as §1, §2, §3
Data set [3] concerns pro-inflammatory cytokine release, raw264.7 cells. In words: Control cytokine release assay without LPS treatment. Type of data set: cell-based, mouse. The conditions noted are these: raw264.7 cells without any LPS treatment. How it is done: as §3
This confirms that the developed nanoparticles are suitable for anti-inflammatory treatment as expected.

Data set [4] is described as follows: Pharmacokinetics in plasma after intravenous injection. The arrangement: species or system mice. The conditions noted are these: male, DBA/lOlaHsd, mouse, in vivo, 12 mg/kg. How it is done:
Nanoparticles were prepared by emulsion-evaporation as described above and were diluted in PBS to obtain a final concentration of 2.5 mg/ml DXP, which corresponds to 1.55 mg/ml dexamethasone base. […] DXM. DBA/lOlaHsd male mice aged of 9 weeks (Envigo) were divided into two groups. One received the nanoparticle suspension and the other received the control, administration was carried out by intravenous injection in the tail vein at 12 mg/kg eq. DXM. For each group, 11 pharmacokinetic time points were performed with 7 mice per point, from 10 min to 48 hours. Blood sampling was achieved by terminal cardiac puncture using a 25G needle while mice were previously anesthetized with a lethal dose of pentobarbital. Immediately after, blood was centrifuged to recover plasma which was stored at −80° C. For every time point, 5 mice out of 7 underwent organs sampling after cardiac puncture. Liver, spleen, kidneys and lungs were removed and stored at −80° C.
To achieve quantification of DXM and DXP in plasma, an extraction process was developed. 100 μl of plasma samples were introduced into centrifugation tubes and 100 μl of the internal standart at 4 μg/ml in acetonitrile was added and vortexed during 30 seconds. 3 ml of a mixture chloroform/methanol: 9/1 (v/v) was added and tubes were vortexed vigorously 3 minutes. Centrifugation were performed at 3500 rpm, 30 min. Organic phase was recovered and evaporated using an evaporator under gas flow. Dried molecules were dissolved in 200 μl acetonitrile and this sample was analyzed by HPLC-UV. Calibration curves of DXP and DXM were linear, respectively in the range 0.5-100 μg/ml (R^2=0.9997, y=0.2199x−0.0165) and 0.1-100 μg/ml (R^2=0.9974, y=1.056x+0.1445). Regarding short time points (10 min, 20 min, 40 min), DXP and DXM concentrations were above the linearity range of the calibration curve. A second calibration curve for each molecule was set up, beginning with 50 μl plasma completed to 100 μl with milliQ water. Following stages were the same than previously described. Calibration curves “50 μl plasma” of DXP and DXM were linear, respectively in the range 50-800 μg/ml (R^2=0.9808, y=0.2229x−3.2128) and 20-400 μg/ml (R^2=0.9986, y=0.7178x−0.059). Internal standard was testosterone decanoate for DXP and dexamethasone acetate for DXM quantification.

For `C[C@@H]1C[C@H]2[C@@H]3CCC4=CC(=O)C=C[C@]4(C)[C@@]3(F)[C@@H](O)C[C@]2(C)[C@@]1(O)C(=O)COP(=O)(O)O` [DSP, dexamethasone sodium phosphate], in data set [1], the IL-6 release entry is on record as “No significant reduction”. In addition, the TNFα release entry in data set [2] is recorded as “no effect detected”. Moreover, the “induction of pro-inflammatory cytokine release” value in data set [3] is listed as “neither DXP nanoparticles nor free drug induce pro-inflammatory cytokine release”. Also, in data set [4], the AUC0→t was 18755 µg·min/mL, the C0 turned out to be 22400 ng/mL, the Clearance was 0.0046 mL/min and the Cmax was 22100 ng/mL. Also, in data set [4], the MRT is 45 h, the Tmax amounted to 0.167 h, the Vd came out at 12.50 mL and the “plateau of DXM in plasma” value is recorded as “around 10 % of the injected dose”. For the same molecule, the t1/2 in data set [4] stood at 28.8 h.
